We go through 17 compounds from PubChem BioAssay (NCI).

Common to all, as to assay: NCI-60 cell line screen, 48 h
Assay [1] deals with HL-60(TB) leukemia.
The subject of assay [2] is IGROV1 ovarian.
Assay [3] concerns OVCAR-8 ovarian.
In assay [4] the test system is SK-MEL-2 melanoma.
The subject of assay [5] is SK-MEL-5 melanoma.
Assay [6] concerns SW-620 colon.
Assay [7] has as its system UACC-257 melanoma.
The test system of assay [8] is HOP-62 NSCLC.
Assay [9] has as its system RPMI-8226 leukemia.
In assay [10] the test system is RXF 393 renal.

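A five-concentration, 48-hour dose response in 96-well plates underlies each endpoint, interpolated linearly between surrounding concentrations. GI50: concentration for 50% inhibition of growth. Definition used: TGI = concentration required for complete inhibition of growth.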

`C=C1CC[C@H]2C(C)=CC[C@H]3C(=C)C(=O)O[C@@H]3[C@@H]12`: the TGI in assay [1], in [2], in assay [3], in [4], in assay [5] and in assay [6] was more than 100 µM throughout. The compound further returned a TGI in assay [7] of more than 100 µM.
As for `OCCN(CO)CO`, the TGI in assay [8], in assay [2], in assay [3], in assay [9], in assay [10] and in assay [4] was more than 100 µM throughout. For the same compound, the TGI in assay [5], in assay [6] and in assay [7] was more than 100 µM each time.
`CSC1=Nc2c(c(C)c(-c3ccccc3)n2COC(CO)CO)C2=NC(=O)CC(C)N12` (centres undefined): the GI50 is 98.1 µM in [8]; more than 100 µM in assay [2]; more than 100 µM in [3]; more than 100 µM in assay [9]; more than 100 µM in assay [10]; more than 100 µM in [4]. The GI50 in assay [5], in assay [6] and in [7] was more than 100 µM throughout. Besides, the TGI in assay [8], in assay [2], in [3], in assay [9], in assay [10] and in assay [4] was more than 100 µM each time. In addition, the TGI in assay [5], in [6] and in assay [7] was more than 100 µM throughout.
On to `COc1cc(-c2nn(-c3cccc(NC(=O)CCNc4ccc(N5CCOCC5)cc4)c3)cc2-c2ccncc2)ccc1Cl`, for which the GI50 was 3.71 µM in [1]; 3.48 µM in assay [8]; 3.31 µM in [2]; 2.92 µM in assay [3]; 2.05 µM in assay [10]; 2.07 µM in assay [4]. Also, the GI50 in assay [5] was 1.95 µM; in assay [6], 3.55 µM; in assay [7], 2.38 µM. The TGI in [1] is more than 100 µM; in assay [8], 22.3 µM; in assay [2], more than 100 µM; in [3], 16.1 µM; in assay [10], 8.08 µM; in assay [4] it was 5.64 µM. For the same compound, the TGI in assay [5] is 4.89 µM; in assay [6] it was more than 100 µM; in assay [7] it was 8.72 µM.
Turning to `COc1cc(/C=C2\SC(N3CCCCC3)=NC2=O)ccc1OCCCCCCOc1ccc(/C=C2\SC(N3CCCCC3)=NC2=O)cc1OC`, the GI50 was 14.6 µM in assay [1]; 4.05 µM in assay [8]; 11.1 µM in [2]; 4.95 µM in assay [3]; 4.94 µM in [10]; 21.8 µM in assay [4]. Moreover, the results for the GI50 in assay [5], in [6] and in [7] were 9.35 µM, 14.9 µM and 17.4 µM, respectively. Moreover, the TGI in assay [1] amounted to 84.4 µM; in [8] it was 16.3 µM; in assay [2], 43 µM; in assay [3] it was 31.1 µM; in [10], 16.9 µM; in assay [4], 93.9 µM. Further, the TGI in [5] turned out to be 28.2 µM; in [6], 48.3 µM; in assay [7] it was 47.6 µM.
For `COc1ccc(/C=C\c2cc(OC)c(OC)c(OC)c2)cc1`, the TGI in [8] was more than 100 µM; in assay [2] it was more than 100 µM; in assay [3] it was more than 100 µM; in assay [9] it was more than 100 µM; in assay [4] it was more than 100 µM; in assay [5], 14.5 µM.
Take `Cc1ccc(S(=O)C(C)C(Cl)c2ccccc2)cc1` (centres undefined): the TGI in [8], in assay [2], in assay [3], in assay [9], in [10] and in [4] was more than 100 µM throughout. Also, the TGI in assay [5], in [6] and in [7] was more than 100 µM each time.
With `CN(C)c1ccc(C(O)C2=CC(=O)c3ccccc3C2=O)cc1` (centres undefined), the GI50 in [8] is 23.1 µM; in assay [2], 1.94 µM; in assay [3], 11.6 µM; in assay [9], 3.69 µM; in assay [10] it was 4.29 µM; in [4], 2.88 µM. In addition, the GI50 in assay [7] was 18.4 µM. The TGI was 64.7 µM in assay [8]; 4.52 µM in assay [2]; 32.8 µM in assay [3]; 66.8 µM in assay [9]; 56.6 µM in [10]; 11.7 µM in assay [4]. In assay [7], this compound came in with a TGI of 41 µM.
Turning to `O=NNc1ccc(S(=O)(=O)c2ccc3ccccc3c2)cn1`, the TGI in assay [1], in assay [8], in assay [2], in [3], in assay [4] and in [5] was more than 100 µM throughout. Further, the TGI in assay [6] and in [7] was more than 100 µM in each case.
With `N#Cc1cc(S(=O)(=O)Nc2nc3cc(Cl)ccc3o2)c(SCc2ccccc2)cc1Cl`, the GI50 in [8] is 12.3 µM; in assay [2] it was 15 µM; in assay [3], 14.2 µM; in [9] it was 16.3 µM; in [10], 12.5 µM; in [4] it was 12.4 µM. Besides, the values for the GI50 in assay [5], in [6] and in [7] were 15.1 µM, 11.7 µM and 13 µM, respectively. Moreover, the TGI in assay [8] worked out at 24.8 µM; in [2] it was 28.3 µM; in [3], 27.3 µM; in [9], 43 µM; in [10], 25 µM; in assay [4], 24.8 µM. In addition, the TGI is 28.3 µM in assay [5], 23.9 µM in [6] and 25.7 µM in assay [7].
In the case of `Cc1cc(C)nc(NS(=O)(=O)c2ccc(Nc3c4ccccc4nc4c(C(=O)NCCN(C)C)cccc34)cc2)n1`, the TGI in [1] came out at 4.82 µM; in [8], 14.5 µM; in assay [2], 16.4 µM; in assay [3] it was 20.5 µM; in assay [10], 20.2 µM; in assay [4] it was 19.1 µM. For the same compound, the figures for the TGI in [5] and in assay [6] were 18.8 µM and 15.2 µM, respectively.
As to `O=C(/C=C/c1ccccc1O)c1ccccc1Cl`, the TGI in [1] is 63.8 µM; in assay [8], more than 100 µM; in assay [2], more than 100 µM; in assay [3], more than 100 µM; in assay [10], more than 100 µM; in [4], more than 100 µM. In addition, the TGI in [5], in assay [6] and in [7] was more than 100 µM in each case.
On to `Cc1cc(S(N)(=O)=O)c(S/C(=N\NS(=O)(=O)c2ccccc2)c2ccc(Cl)cc2)cc1Cl`, for which the GI50 was 50.6 µM in [1]; more than 100 µM in [8]; more than 100 µM in [2]; more than 100 µM in [3]; 67.9 µM in assay [5]; more than 100 µM in [6]. For the same compound, in assay [7], the GI50 was 54.5 µM. The TGI in assay [1], in assay [8], in assay [2], in assay [3], in assay [5] and in assay [6] was more than 100 µM in each case. For the same compound, the TGI in assay [7] was more than 100 µM.
With `CCOC(=O)c1c(NC(=O)c2ccc(Cl)cc2)sc2c(CN(C)C)c(O)ccc12`, the GI50 was 5.58 µM in [8]; 8.88 µM in assay [2]; 3.55 µM in assay [3]; 2.98 µM in [10]; 6.51 µM in assay [4]; 10.8 µM in assay [5]. Further, in assay [6], the GI50 is 2.4 µM. For the same compound, the TGI in [8] was found to be 27.1 µM; in assay [2], 31.7 µM; in [3], 19.2 µM; in assay [10], 13.4 µM; in [4], 41.1 µM; in [5], 35.1 µM. The TGI in assay [6] turned out to be 7.33 µM.
As to `O=[N+]([O-])/C=C/c1ccc(Cl)cc1[N+](=O)[O-]`, the GI50 was 3.23 µM in [1]; 3.04 µM in assay [8]; 2.01 µM in assay [2]; 3.88 µM in [3]; 2.36 µM in [10]; 12.3 µM in assay [4]. The GI50 in assay [5] is 8.47 µM; in [7], 11.9 µM. The TGI was found to be 14.1 µM in assay [1]; 13.4 µM in assay [8]; 5.85 µM in [2]; 13.6 µM in assay [3]; 4.02 µM in assay [10]; 39.7 µM in assay [4]. The figures for the TGI in assay [5] and in [7] were 21.5 µM and 24.9 µM, respectively.
As to `Clc1ccc(CN2CCCN(Cc3ccc(Cl)cc3)C2c2cc3ccccc3c3ccccc23)cc1`, the TGI in [8] was more than 100 µM; in [2], more than 100 µM; in assay [3], more than 100 µM; in assay [9], more than 100 µM; in assay [10], more than 100 µM; in [4], 44.1 µM. The TGI in [5] is 32.7 µM; in assay [6] it was more than 100 µM; in assay [7], 56.1 µM.
For the compound `O=c1cccc(Cl)[nH]1`, the TGI in assay [8], in assay [2], in [3], in assay [9], in [10] and in assay [4] was more than 100 µM in each case. The TGI in [5], in assay [6] and in assay [7] was more than 100 µM each time.
